Data reported in ChEMBL document CHEMBL1914374, “Effect of different C3-aryl substituents on the antioxidant activity of 4-hydroxycoumarin derivatives” (Bioorg Med Chem, 2011).
pEC50: −log10 of the molar value.

Experiments:
Format in all cases: functional
[1] = test system: Radical scavenging activity; assay: Antioxidant activity assessed as DPPH free radical scavenging activity after 10 mins by UV-Vis spectrophotometric analysis
[2] = Antioxidant activity assessed as trolox equivalents of ABTS radical scavenging activity by TEAC assay
[3] = Antioxidant activity in soybean lipoxygenase-induced beta-carotene-linoleic acid co-oxidation assessed as inhibition of beta-carotene bleaching after 10 mins relative to control; parameters: scale not given: the % may be the effect or the level left

| Compound | pEC50 [1] | Activity [2] [µmolequiv/g] | Activity [3] [%/mmol] |
| --- | --- | --- | --- |
| O=c1cc(O)c2ccccc2o1 [4-HYDROXYCOUMARINS] | 2.42 | 186 | 2.07 |
| Cc1cc(=O)oc2cc(O)ccc12 [HYMECROMONE] | 2.05 | 54.8 | < 0.5 |
| O=c1oc2ccccc2c(O)c1-c1ccccc1 | 2.38 | 46.6 | 5.79 |
| O=c1oc2ccccc2c(O)c1-c1ccc(Cl)cc1 | 2.38 | 50 | 5.94 |
| O=c1oc2ccccc2c(O)c1-c1cccc2ccccc12 | 2.19 | 56.8 | 4.26 |

Further lines, with some results ahead:

| pEC50 [1] | Compound | Activity [2] [µmolequiv/g] | Activity [3] [%/mmol] |
| --- | --- | --- | --- |
| 3.27 | COc1ccc(-c2c(O)c3ccccc3oc2=O)cc1 | 699 | 23.1 |
| 2.72 | COc1ccccc1-c1c(O)c2ccccc2oc1=O | 567 | 25.5 |
| 2.38 | O=c1oc2ccccc2c(O)c1-c1ccccc1Cl | 50 |  |
